Assay results as given in patent US8367622B2, “Sulfated C-glycoside, method for isolating same and method for synthesizing same” (Shizuoka Prefecture Public University Corporation, priority 2009, dated 2013).
“Also recorded” adds a separate entry of the source. Like-named read-outs stand apart in the source and are kept apart here. Each block holds one compound with its values, some of them ahead of it.

Assays:
Water solubility = type: physicochemical
Description: Considering the fact that sulfation has been correlated with mechanism of detoxification elimination in metabolism, the presence of precursors of chafuroside which are sulfated derivatives in tea leaves has great significance. As for isovitexin and vitexin, their anticancer effect, effect of reducing damages by UV irradiation, inhibiting effect of COX, antioxidant effect, antianxiety effect and the like have been drawing the attention recently.
(§1) In the result, the production of chafurosides A and B by heating was detected only in all of the extracts and their aqueous fractions.

[1] = Liquid-liquid partition with water and n-BuOH; type: physicochemical; details: qualitative
Method: 1 g of oolong tea leaves prepared from Shizu 7132 was ground and was subjected to extract with MeOH, 50%-MeOH and water (1 ml) under reflux. After concentrating, drying and solidifying the extract liquid under reduced pressure, it was suspended in water (0.4 ml) and then was extracted with n-BuOH (4 ml and 1 ml). All of the extracts, their aqueous fractions and n-BuOH fractions obtained by liquid-liquid partition thereof were heated at 160° C. for 40 minutes.
as §1

[2] = tested on: atopic disease model induced by 2,4-dinitro-fluorobenzene; details: cited from earlier work; for activity in atopic disease model: oral administration, ingredients isolated from oolong tea
[3] = tested on: intestinal polyp formation induced by azoxymethane (AOM); details: 2.5 mg/kg, same dosage as indomethacin; cited from earlier work

Structure (SMILES): O=c1cc(-c2ccc(O)cc2)oc2cc(O)c([C@@H]3O[C@H](CO)[C@@H](O)[C@H](O)[C@H]3O)c(O)c12 [isovitexin]
solubility in water (Water solubility; qualitative): very poorly soluble in water
fraction after liquid-liquid partition water / n-butanol [1]: move to the n-butanol solvent fraction
fraction after liquid-liquid partition water / n-butanol ([1]; listed as Isovitexin): move to n-BuOH fractions

Structure (SMILES): O=c1cc(-c2ccc(O)cc2)oc2c3c(cc(O)c12)O[C@H]1[C@@H](O)[C@H](O)[C@@H](CO)O[C@@H]31 [chafuroside B]
activity in atopic disease model [2]: exhibiting activities via oral administration

Structure (SMILES): O=c1cc(-c2ccc(O)cc2)oc2cc3c(c(O)c12)[C@@H]1O[C@H](CO)[C@@H](O)[C@H](O)[C@@H]1O3 [chafuroside A]
dermal inflammation-inhibiting activity ([2]; 10 μg/kg, comparable with Prednisolone (10 mg/kg) and Betamethasone (0.8 mg/kg)): significant dermal inflammation-inhibiting activity
activity in atopic disease model [2]: exhibiting activities via oral administration
inhibiting activity against intestinal polyp formation [3]: effectively-inhibiting activity

solubility in water (Water solubility): high water solubility
Structure (SMILES): O=c1cc(-c2ccc(O)cc2)oc2cc(O)c([C@@H]3O[C@H](CO)[C@@H](O)[C@H](O)[C@H]3OS(=O)(=O)O)c(O)c12 [prechafuroside A, isovitexin 2″-O-sulfate]

solubility in water (Water solubility): high water solubility
Structure (SMILES): O=c1cc(-c2ccc(O)cc2)oc2c([C@@H]3O[C@H](CO)[C@@H](O)[C@H](O)[C@H]3OS(=O)(=O)O)c(O)cc(O)c12 [prechafuroside B, vitexin 2″-O-sulfate]

Structure (SMILES): O=c1cc(-c2ccc(O)cc2)oc2c([C@@H]3O[C@H](CO)[C@@H](O)[C@H](O)[C@H]3O)c(O)cc(O)c12 [vitexin]
solubility in water (Water solubility; qualitative): very poorly soluble in water
fraction after liquid-liquid partition water / n-butanol [1]: move to n-BuOH fractions; also recorded: move to the n-butanol solvent fraction
